Test results: US20220275329A1, “COMPOSITIONS AND METHODS FOR MATURING STEM CELL-DERIVED BETA CELLS” (President and Fellows of Harvard College, priority 2019, published 2022)
Entries after “also recorded” stand apart in the source; their conditions may differ.

Tests used:
mTORC1 [1] = assay: p-S6 staining of SC-beta cells (mTORC1 activity); type: cell-based, human
Procedure: (§1) The hPSC line HUES8 (NIH human embryonic stem cell registry #0021) was used for all experiments. Undifferentiated HUES8 cells were maintained in supplemented mTeSR1 medium (StemCell Technologies) in 500 ml spinner flasks (Coming) set at a 70 rpm rotation rate in a 37° C. 5% CO2 incubator. Directed differentiation into SC-β cells was conducted as described previously with minor modifications. Briefly, 150 million cells were seeded in 300 ml mTeSR1 +10 μM ROCK Inhibitor Y27632, fed with mTeSR1 48 h later, and 72 h later stepwise differentiation stages were induced by the following treatments: DE stage: 24 h in S1 medium +100 ng/ml ActivinA +[…] CHIR99021, followed by 48 h in the same medium without CHIR99021. PGT stage: 72 h in S2 medium +50 ng/ml KGF. PP1 stage: 24 h in S3 medium +50 ng/ml KGF +0.25 μM Sant1 +2 μM Retinoic acid (RA) +500 nM PDBU +10 μM Y27632 +200 nM LDN193189, followed by 24 h in the same medium without LDN193189. […]
(§2) Cells were then resuspended in perm/wash with primary antibodies and incubated at 4° C. overnight. […] Cells were then washed 3 times in perm/wash solution and finally resuspended in 500-700 μl, filtered through a 40 μm nylon mash into flow cytometry tubes (BD Falcon; 352235), and analyzed using the LSR-II flow cytometer (BD Biosciences) with at least 30,000 events recorded. […]

SC-beta cells = assay: Glucose stimulated insulin secretion (GSIS) assay of SC-beta cells; type: cell-based, human
Procedure: as §1, with “LDN193189. PP2 stage: 6 days in S3 medium +50 ng/ml KGF +0.25 uM Sant1 +0.1 μM Retinoic acid (RA) +10 μM Y27632 +5 ng/ml ActivinA.” for “LDN193189.”
Islets were isolated from whole pancreata using Collagenase P (Roche) injected to the pancreatic duct followed by Histopaque gradient (Sigma). […] Insulin levels were measured by ELISA (Alpco). […] Normalization was done to β-cell number in each sample (pooled from 4 or more mice) scored by FACS following staining for insulin.

mTORC1 [2] = assay: p-S6 FACS staining of beta cells in isolated human islets (mTORC1 activation); type: cell-based; conditions: for effect on mTORC1 activity (p-S6) in mature beta cells: human islets, 30 minute incubation in RPMI
Excerpt: Insulin-expressing beta cells appear around embryonic day 13.5 (E13.5) in mice and week 8 and 9 post-conception in humans (Pan and Wright, 2011; Slack, 1995), but glucose-stimulated insulin secretion (GSIS) has been observed only days after birth (Blum et al., 2012). Since a major change from embryonic to postnatal physiology is nutrient consumption, it was predicted that nutrients and nutrient sensing by mTORC1 could have a role in the transition from immature to mature insulin secretion by beta cells. To explore that, the nutrient sensitivity and dynamics of mTORC1 in isolated mature human and mouse islets was first examined.
(§3) Differentiated cell clusters or islets were dispersed into single-cell suspension by incubation in TrypLE Express (Invitrogen) at 37° C. until clusters dissociated to single cells upon mixing by pipetting gently up and down (typically 10-15 min). Cells were spun down for 3 min at 1000 rpm, washed once in PBS (1 mL) and transferred to a 1.7 ml microcentrifuge tube (Bioscience; 11510). Cells were resuspended in perm/fix solution and incubated for 10 min (BD 554714). Cells were then washed once in perm/wash for 15 min (BD 554714).
Cells were then resuspended in perm/wash with primary antibodies and incubated at 4° C. overnight. Primary antibodies, diluted 1:300 unless otherwise noted: Mouse anti-Nkx6.1, rat anti-insulin (pro-)IC-peptide, mouse anti-glucagon, rabbit anti-phospho-S6 Ribosomal Protein (Ser240/244). Cells were washed twice in blocking buffer and then incubated in perm/wash buffer with secondary antibodies for 2 hr (protected from light). Secondary antibodies conjugated to Alexa Fluor 405, 488 or 647 (Life Technologies) were used to visualize primary antibodies. Cells were then washed 3 times in perm/wash solution and finally resuspended in 500-700 μl, filtered through a 40 μm nylon mash into flow cytometry tubes (BD Falcon; 352235), and analyzed using the LSR-II flow cytometer (BD Biosciences) with at least 30,000 events recorded. Analysis of the results was performed using FlowJo software. […]

mTORC1 [3] = assay: p-S6 FACS staining of beta cells in isolated mouse islets (mTORC1 activation); type: cell-based
Procedure: as §3
as §2, with “overnight. Primary antibodies, diluted 1:300 unless otherwise noted: Mouse anti-Nkx6.1, rat anti-insulin (pro-)IC-peptide, mouse anti-glucagon, rabbit anti-phospho-S6 Ribosomal Protein (Ser240/244).” for “overnight.”
For flow cytometry, mouse islets were dissociated into a single-cell suspension with trypsin/EDTA treatment for 5 minutes at 37° C., followed by treatment with a cell fixation and permeabilization solution (BD Pharmingen). Stained cells were analyzed on a MACSQuant Analyzer (DAKO). […]

mTORC1 [4] = assay: p-S6 immunostaining of pancreatic islets of fasted mice injected with nutrients; type: in vivo, mouse; conditions: overnight fasted mice, injection
Procedure: To assess this, mTORC1 activation was analyzed in the islets of fasted mice upon injection with glucose and/or leucine. […] Alpha cells activate the pathway in the presence of amino acids (likely supplied from autophagy) and the absence of glucose (e.g., during fasting), whereas beta cells activate mTORC1 merely following glucose consumption and insulin secretion during feeding (FIG. 1H).
To test the nutrient sensitivity of mTORC1 in beta cells in vivo, glucose was injected into neonates and their pancreata was dissected.
Tissue processing for tissue section staining was performed as previously described {Nir, 2007 #3232}, using the following antibodies: insulin (DakoCytomation), Ki67 (NeoMarkers RM9106S0), Pdx1 (gift from Christopher Wright, Vanderbilt University), Nkx6.1 (β-cell Biology Consortium), Chga (Novus NB120-15160) human p16 (Abcam ab108349 and BD Pharmingen 551153), p21 (Santa Cruz Biotechnology sc-397), Lamp2a (Abcam ab18528), pS6 (Cell Signaling 5364), E-cadherin (BD Pharmingen 610182), Atp5a (Abcam ab14748), Cox17 (Novus NBP1-19696) and Ndufb (Sigma-Aldrich HPA005640). Secondary antibodies were from Jackson ImmunoResearch Laboratories. […] To calculate cell size on tissue sections, the circumference of E-Cadherin-stained cells was determined using Image J Software. >100 cells from 6 mice were scored for each group. […]

mTORC1 [5] = assay: p-S6 immunostaining of kidney capsule transplants of SC-beta cells in mice injected with nutrients; type: in vivo; conditions: two months after transplantation, fasted recipient mouse, injection
Procedure: Having insight into the nutrient sensitivity of mTORC1 in immature and mature beta cells, the next question was whether changing the environment of the SC-beta cells would change mTORC1 sensitivity to nutrients and its dynamics (FIG. 3A). SC-beta cells were collected from the final stage of the differentiation protocol and transplanted into mice for a period of two months, until reaching a stable functional state. […] All animal experiments were performed in accordance with Harvard University […] Animal Care and Use Committee regulations. Cell transplantations into immunodeficient SCID-Beige mice (Jackson Laboratory) were conducted as described previously with minor modifications. SC-beta cell clusters were resuspended in RPMI-1640 medium (Life Technologies; 11875-093), aliquoted into PCR tubes and kept on ice until loading into a catheter for cell delivery under the mouse kidney capsule. Mice were anesthetized with 0.5 ml/25 g 1.25% Avertin/body weight, and the left […] kidney site was shaved and disinfected with betadine and alcohol. A 1 cm incision was made to expose the kidney, followed by insertion of the catheter needle and injection of the cell clusters. […] Wound clips were removed 14 days post-surgery and mice were monitored twice a week. […]

CCC(=O)N1CCN(c2ccc(-n3c(=O)ccc4cnc5ccc(-c6cnc7ccccc7c6)cc5c43)cc2C(F)(F)F)CC1 [Torin1]
effect on enhanced mTORC1 signaling (phosphorylation of p-S6) in nonresponsive SC-beta cells (mTORC1 [1]; glucose-nonresponsive SC-beta cells): repressed
effect on mTORC1 activity (p-S6) of SC-beta cells cultured in a high nutrient environment (mTORC1 [1]; rich RPMI media): repressed
GSIS of SC-beta cells grown in indicated conditions (SC-beta cells; low (2.8 mM) and high (16.7 mM) glucose for 1 h): increases their GSIS
insulin secretion in dynamic GSIS assay (SC-beta cells; nonresponsive SC-beta cells treated for 48 hours, low 2.8 mM, high 16.7 mM glucose): induced insulin secretion in response to glucose
effect on mTORC1 activity (p-S6) in mature beta cells (mTORC1 [2]): inhibited

CC1=NS(=O)(=O)c2cc(Cl)ccc2N1 [diazoxide]
effect on mTORC1 activation (p-S6) in immature beta cells from mice of indicated age (mTORC1 [3]; RPMI with glucose and amino acids, 30 minute incubation): inhibits mTORC1 activation only at P5; also recorded: does not affect mTORC1 activation
effect on mTORC1 activity (p-S6) in mature beta cells (mTORC1 [2]): inhibits mTORC1 activation; also recorded: dramatically reduces mTORC1 activity in beta cells

CC(C)C[C@H](N)C(=O)O [leucine]
mTORC1 activation (p-S6) in beta cells of adult mice (mTORC1 [4]): not sufficient to activate the pathway
mTORC1 pathway activation (p-S6) in transplanted SC-beta cells (mTORC1 [5]): remains inactive
effect on mTORC1 activity (p-S6) in mature beta cells (mTORC1 [2]): amplifies the response to glucose in beta cells; also recorded: sufficient to fully activate the beta cell mTORC1 pathway in the presence of glucose

Exendin-4
effect on mTORC1 activity (p-S6) in mature beta cells (mTORC1 [2]): increased
effect on mTORC1 activity (p-S6) in mature beta cells (mTORC1 [2]; listed as exendin4): strongly activate mTORC1 in beta cells
effect on mTORC1 activity suppressed by diazoxide in beta cells (mTORC1 [2]; in the presence of diazoxide, glucose and amino acids): rescued

insulin
effect on mTORC1 activation (p-S6) in mouse beta cells (mTORC1 [3]; mouse islets, 30 minutes incubation in RPMI with indicated nutrients): do not affect mTORC1 activation in beta cells
effect on mTORC1 activity (p-S6) in mature beta cells (mTORC1 [2]): not mimicked; also recorded: neither stimulation with insulin nor stimulation with insulin and amino acids was able to activate mTORC1 in beta cells
